Results on 35 molecules are retold here after patent publication EP2140864A2 (H. Lundbeck A/S, priority 2001, dated 2002).

The assay deals with T1, human GAL3 receptor (Homo sapiens, UniProt O60755).
T1 construct: expressed in transfected cells
T1 sequence (O60755 1-368): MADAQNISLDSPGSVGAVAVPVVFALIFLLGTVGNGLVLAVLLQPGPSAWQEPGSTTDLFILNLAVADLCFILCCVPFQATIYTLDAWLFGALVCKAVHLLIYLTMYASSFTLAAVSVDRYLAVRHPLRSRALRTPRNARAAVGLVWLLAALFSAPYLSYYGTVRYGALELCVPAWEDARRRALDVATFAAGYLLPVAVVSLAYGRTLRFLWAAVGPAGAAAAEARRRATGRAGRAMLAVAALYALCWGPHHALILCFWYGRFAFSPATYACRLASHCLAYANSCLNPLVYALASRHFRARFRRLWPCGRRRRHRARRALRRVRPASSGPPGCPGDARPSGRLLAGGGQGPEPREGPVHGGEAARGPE
The assay can be described thus: Radioligand binding at cloned human GAL3 receptor. Conditions: indolones, cloned human receptor; read-out: Ki GalR3. Summed up: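 Membranes from LM(tk-) cells stably expressing human GAL3, prepared in binding buffer (HEPES-based, pH 7.4), used for radioligand binding. Solvent at final assay concentration: 3% DMSO for indolones, 1% ethanol/0.09% pluronic F-127 for pyrimidines. Binding data analysed by nonlinear regression.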
As usually defined, the Ki is a dissociation constant, usually derived from enzyme kinetics or from competition with a known ligand. Regarding `Cc1cccc(/N=C2\C(=O)N(c3ccsc3)c3ccccc32)c1` [Example 271], the inhibition constant (Ki) came to 114 nM. As to `O=C1/C(=N\c2cccc(C(F)(F)F)c2)c2ccccc2N1Cc1ccccn1` [Example 273], the Ki came to 202 nM. With `O=C1/C(=N\c2cc(Cl)cc(Cl)c2)c2ccccc2N1Cc1ccccn1` [Example 274], the Ki came out at 174 nM.

Consider `Cc1noc(C)c1CN1C(=O)/C(=N\c2cccc(C(F)(F)F)c2)c2ccccc21` [Example 275], for which the Ki is 595 nM.

With `O=C1/C(=N\c2ccc(F)c(F)c2)c2ccccc2N1Cc1cccnc1` [Example 276], the Ki turned out to be 192 nM. Consider `O=C1/C(=N\c2cccc(C(F)(F)F)c2)c2ccccc2N1Cc1cccnc1` [Example 277], for which the Ki came to 198 nM. `O=C1/C(=N\c2ccc(F)c(F)c2)c2ccccc2N1Cc1ccccn1` [Example 278]: the Ki was 340 nM.

For `O=C1/C(=N\c2cc(Cl)cc(Cl)c2)c2ccccc2N1Cc1cccnc1` [Example 279], the Ki was determined as 81 nM. Consider `Cc1noc(C)c1CN1C(=O)/C(=N\c2cc(Cl)cc(Cl)c2)c2ccccc21` [Example 280], for which the Ki stood at 521 nM.

In the case of `CCn1c2ccccc2c2cc(/N=C3\C(=O)N(c4ccccc4)c4ccccc43)ccc21` [Example 281, (3Z)-3-[(9-ETHYL-9H-CARBAZOL-3-YL)IMINO]-1-PHENYL-1,3-DIHYDRO-2H-INDOL-2-ONE], the Ki stood at 150 nM. With `O=C1/C(=N\c2cccc3ncccc23)c2ccccc2N1c1ccccc1` [Example 282, (3Z)-1-PHENYL-3-(5-QUINOLINYLIMINO)-1,3-DIHYDRO-2H-INDOL-2-ONE], the Ki was 333 nM. Regarding `O=C1/C(=N\c2ccc(I)cc2)c2ccccc2N1c1ccccc1` [Example 283, (3Z)-3-[(4-IODOPHENYL)IMINO]-1-PHENYL-1,3-DIHYDRO-2H-INDOL-2-ONE], the Ki worked out at 33 nM. As for `O=C1/C(=N\c2ccc(F)c(F)c2)c2ccccc2N1c1ccccc1` [Example 285, (3Z)-3-[(3,4-DIFLUOROPHENYL)IMINO]-1-PHENYL-1,3-DIHYDRO-2H-INDOL-2-ONE], the Ki turned out to be 26 nM. As for `COc1ccc(/N=C2\C(=O)N(c3ccccc3)c3ccccc32)c(OC)c1` [Example 287, (3Z)-3-[(2,4-DIMETHOXYPHENYL)IMINO]-1-PHENYL-1,3-DIHYDRO-2H-INDOL-2-ONE], the Ki stood at 260 nM. Take `N#Cc1cccc(/N=C2\C(=O)N(c3ccccc3)c3ccccc32)c1` [Example 288, 3-{[(3Z)-2-OXO-1-PHENYL-1,2-DIHYDRO-3H-INDOL-3-YLIDENE]AMINO}BENZONITRILE]: the inhibition constant (Ki) is 39 nM. Take `Cc1ccc(C(F)(F)F)cc1/N=C1\C(=O)N(c2ccccc2)c2ccccc21` [Example 289, (3Z)-3-{[2-METHYL-5-(TRIFLUOROMETHYL)PHENYL]IMINO}-1-PHENYL-1,3-DIHYDRO-2H-INDOL-2-ONE]: the Ki came to 59 nM.

As to `Cc1cc(N=C2C(=O)N(c3ccsc3)c3ccccc32)ccc1Cl` [Example 290], the Ki is 55 nM. For `O=C1/C(=N\c2ccc3ncccc3c2)c2ccccc2N1c1ccsc1` [Example 291, (3Z)-3-(6-QUINOLINYLIMINO)-1-(3-THIENYL)-1,3-DIHYDRO-2H-INDOL-2-ONE], the Ki is 271 nM. On to `O=C1C(=Nc2ccc(Cl)cc2)c2ccccc2N1c1ccsc1` [Example 292, (3Z)-3-[(4-CHLOROPHENTYL)IMINO]-1-(3-THIENYL)-1,3-DIHYDRO-2H-INDOL-2-ONE], for which the Ki amounted to 34 nM. As to `CC(C)c1cccc(/N=C2\C(=O)N(c3ccsc3)c3ccccc32)c1` [Example 295, (3Z)-3-[(3-ISOPROPYLPHENYL)IMINO]-1-(3-THIENYL)-1,3-DIHYDRO-2H-INDOL-2-ONE], the Ki came to 242 nM. For `O=C1/C(=N\c2ccc(C3CCCCC3)cc2)c2ccccc2N1c1ccsc1` [Example 296, (3Z)-3-[(4-CYCLOHEXYLPHENYL)IMINO]-1-(3-THIENYL)-1,3-DIHYDRO-2H-INDOL-2-ONE], the Ki was determined as 82 nM. The same measure for `N#CCc1ccc(/N=C2\C(=O)N(c3ccccc3)c3ccccc32)cc1` [Example 297, (4-{[(3Z)-2-OXO-1-PHENYL-1,2-DIHYDRO-3H-INDOL-3-YLIDENE]AMINO}PHENYL)ACETONITRILE]: 226 nM; for `O=C1/C(=N\c2ccc3c(c2)OC(F)(F)O3)c2ccccc2N1c1ccccc1` [Example 298, (3Z)-3-[(2,2-DIFLUORO-1,3-BENZODIOXOL-5-YL)IMINO]-1-PHENYL-1,3-DIHYDRO-2H-INDOL-2-ONE]: 22 nM; for `O=C1/C(=N\c2ccc3ncsc3c2)c2ccccc2N1c1ccccc1` [Example 299, (3Z)-3-(1,3-BENZOTHIAZOL-6-YLIMINO)-1-PHENYL-1,3-DIHYDRO-2H-INDOL-2-ONE]: 377 nM. For `O=C1/C(=N\c2cccc(C(F)(F)F)c2)c2ccccc2N1C1CCOCC1` [Example 300, (3Z)-1-TETRAHYDRO-2H-PYRAN-4-YL-3-{[3-(TRIFLUOROMETHYL)PHENYL]IMINO}-1,3-DIHYDRO-2H-INDOL-2-ONE], the Ki stood at 742 nM. With `O=C1/C(=N\c2ccc3cn[nH]c3c2)c2ccccc2N1c1ccccc1` [Example 301, (3Z)-3-(1H-INDAZOL-6-YLIMINO)-1-PHENYL-1,3-DIHYDRO-2H-INDOL-2-ONE], the Ki was determined as 875 nM. With `COc1ccc2c(c1)N(c1ccccc1)C(=O)/C2=N\c1cccc(Cl)c1` [Example 302, (3Z)-3-[(3-CHLOROPHENYL)IMINO]-6-METHOXY-1-PHENYL-1,3-DIHYDRO-2H-INDOL-2-ONE] the figure was 150 nM. Turning to `COc1ccc2c(c1)N(c1ccccc1)C(=O)/C2=N\c1cccc(C(F)(F)F)c1` [Example 303, (3Z)-6-METHOXY-1-PHENYL-3-{[3-(TRIFLUOROMETHYL)PHENYL]IMINO}-1,3-DIHYDRO-2H-INDOL-2-ONE], the Ki came to 214 nM. As to `O=C1/C(=N\c2ccc(-c3ccsc3)cc2)c2ccccc2N1c1ccccc1` [Example 304, (3Z)-1-PHENYL-3-{[4-(3-THIENYL)PHENYL]IMINO}-1,3-DIHYDRO-2H-INDOL-2-ONE], the inhibition constant Ki turned out to be 728 nM. Regarding `O=C1/C(=N\c2ccc(-c3cccnc3)cc2)c2ccccc2N1c1ccccc1` [Example 306], the Ki worked out at 160 nM. For `O=C1/C(=N\c2cccc(Br)c2)c2ccccc2N1c1ccccc1` [Example 307, (3Z)-3-[(3-BROMOPHENYL)IMINO]-1-PHENYL-1,3-DIHYDRO-2H-INDOL-2-ONE], the Ki came out at 41 nM.

Turning to `O=C1/C(=N\c2cccc(C(F)(F)F)c2)c2cc(-c3ccccc3)ccc2N1c1ccccc1` [Example 308], the Ki came out at 98 nM. On to `O=C1/C(=N\c2cccc(C(F)(F)F)c2)c2ccccc2N1c1ccc(-c2ccccc2)cc1` [Example 309, (3Z)-1-[1,1'-BIPHENYL]-4-YL-3-{[3-(TRIFLUOROMETHYL)PHENYL]IMINO}-1,3-DIHYDRO-2H-INDOL-2-ONE], for which the Ki was 224 nM. On to `O=C1/C(=N\c2cccc(C(F)(F)F)c2)c2ccccc2N1c1ccc(O)cc1` [Example 310, (3Z)-1-(4-HYDROXYPHENYL)-3-{[3-(TRIFLUOROMETHYL)PHENYL]IMINO}-1,3-DIHYDRO-2H-INDOL-2-ONE], for which the Ki was determined as 126 nM. In the case of `O=C1/C(=N\c2ccc(Cl)c(Cl)c2)c2ccccc2N1Cc1cccnc1` [Example 311], the Ki is 32 nM.
